We go through two compounds from patent publication US20060025478A1, “Medicine for prevention or treatment of diabetes” (priority 2004, published 2006).

This test has as its system C57BL/KsJ db/db mice. The experiment in a line: Hypoglycemic effect of single or combined administration in db/db mice (plasma glucose concentration). Format: in vivo, mouse. The settings on record: for Decreasing effect for the plasma glucose concentration (in words) / Relative index (mean plasma glucose of group / mean of control group) / Decreasing rate (of plasma glucose concentration vs control group): 14th day; for Decreasing effect for the plasma glucose concentration (in words): compared with db/+m normal mouse (187±16); for Relative index (mean plasma glucose of group / mean of control group) / Decreasing rate (of plasma glucose concentration vs control group) / Plasma glucose concentration: oral once a day for 14 days; for Decreasing rate (of plasma glucose concentration vs control group): (control mean − group mean)/control mean ×100; for Plasma glucose concentration: plasma 2 hours after administration on the 14th day, mean±standard deviation for 6 mice, control group 499 ± 81. Here is the method: As test animals, C57BL/KsJ db/db mice were used, which were created in Jackson Laboratory (USA) and known as an obesity, hyperlipemia, hyperinsulinemia, and insulin-resistant model (Journal of Clinical Investigation, 85, pp 962-967, 1990). Blood was collected from the orbital venous plexus of each 7-week-old db/db mouse using a heparin-treated capillary tube, and centrifugation was performed to collect plasma. Thereafter, the plasma glucose concentration (Glucose CII-Test Wako (Wako Pure Chemical Industries, Ltd.)), the insulin concentration (Lebis Insulin Kit: for mouse-T (SHIBAYAGI)), and the triglyceride concentration (Triglyceride E-Test Wako (Wako Pure Chemical Industries, Ltd.)) were measured for classification. The classification was performed so that distribution of each measurement item is uniform for each group by block allocation based on many variables in which the plasma glucose concentration is most emphasized using the measured values of the plasma glucose concentration, the body weight, the insulin concentration, and the triglyceride concentration. […] Two hours after the administration of the medicines on the 14th day from the beginning day of the administration, blood was collected from the orbital venous plexus, and the plasma thereof was collected to measure the plasma glucose concentration. […] Each plasma glucose concentration is expressed as mean±standard deviation for 6 mice of each group. Each decreasing rate is calculated from ((mean of plasma glucose concentration of control group)−(mean of plasma glucose concentration of each group))/(mean of plasma glucose concentration of control group)×100, while each relative index is calculated from (mean of plasma glucose concentration of each group)/(mean of plasma glucose concentration of control group)

On to `CCc1ccc(CCOc2ccc(CC3SC(=O)NC3=O)cc2)nc1.Cl` (centres unmarked) [Pioglitazone hydrochloride, 5-[4-[2-(5-Ethyl-2-pyridyl)ethoxy]benzyl]thiazolidine-2,4-dione hydrochloride], for which the “Decreasing effect for the plasma glucose concentration (in words)” value was “insufficient”, the “Relative index (mean plasma glucose of group / mean of control group)” value is 0.80, the “Decreasing rate (of plasma glucose concentration vs control group)” value is 20% and the Plasma glucose concentration was determined as 401 ± 173 mg/dL.
For `O=C([O-])C(Cl)(Cl)CCCCCCCCCCc1ccc(Cl)cc1.[Na+]` [sodium 2,2-dichloro-12-(4-chlorophenyl)-dodecanoate] the same measures were “insufficient”, 0.92, 8% and 459 ± 77 mg/dL.
